Holding throughout (test): growth of human tumour cells (NCI), 48 h
The subject of assay [1] is DLD-1 colon.
Assay [2] has as its system DMS 114 small cell lung.
Assay [3] concerns HCT-116 colon.
Assay [4] concerns HOP-18 NSCLC.
Assay [5] deals with KM20L2 colon.
Assay [6] concerns LXFL 529 NSCLC.
In assay [7] the test system is M19-MEL melanoma.
For assay [8], the system named is OVCAR-4 ovarian.
Assay [9] relates to SN12C renal.
The subject of assay [10] is SNB-78 CNS.
In assay [11] the test system is TK-10 renal.
Assay [12] has as its system XF 498 CNS.
Assay [13] concerns DMS 273 small cell lung.
Assay [14] deals with SR leukemia.
Assay [15] relates to A498 renal.

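Five concentrations, 48 hours, 96-well plates. Definition used: TGI = concentration required for complete inhibition of growth.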 Where only a bound is given, the exact number is not on record here.

With `Cc1cc2c(=O)c3ccc(Cl)cc3[nH]c2c(C(=O)O)c1C`, the TGI in assay [1], in assay [2], in assay [3], in assay [4], in [5] and in assay [6] was over 100 µM each time. The TGI in assay [7], in [8], in assay [9], in assay [10], in assay [11] and in assay [12] was over 100 µM each time.
As to `N#CC(NNC(=O)Cc1ccccc1)c1ccc(O)cc1` (stereo not given), the TGI in assay [1], in assay [2], in [13], in assay [3], in assay [4] and in [6] was over 100 µM in each case. Further, the TGI in assay [7], in [8], in [9], in assay [14] and in [11] was over 100 µM each time.
Regarding `N[C@@H]1c2c(Br)sc(Br)c2C(=O)[C@H]1Br`, the TGI in assay [15] was over 69.9 µM; in assay [3], 39.9 µM; in assay [8], 89.5 µM; in assay [9], 58.9 µM; in [14] it was over 64.2 µM; in [11] it was over 100 µM.
On to `COCN1C(=O)[C@@H]2CCCN2C(=O)c2ccc(Cl)cc21`, for which the TGI in [15], in [3], in [8], in assay [9], in assay [14] and in assay [11] was over 100 µM each time.
As to `O=C(CSc1nc(-c2ccccc2)c(-c2ccccc2)[nH]1)N/N=C/c1ccc([N+](=O)[O-])cc1`, the TGI in assay [15] is 29.2 µM; in [1] it was 38.5 µM; in assay [2], 55.8 µM; in assay [13], 27.9 µM; in assay [3] it was 32.7 µM; in [5], 23.2 µM. The TGI in assay [6] was 38.3 µM; in assay [7], 30.8 µM; in assay [8], 58.8 µM; in assay [9] it was 31.9 µM; in [10], 62.5 µM; in [14], over 100 µM. Also, the TGI in assay [11] is 39.4 µM; in [12] it was 28 µM.
On to `CC(=O)OC12c3ccccc3C(c3ccccc31)C1C(=O)N(Nc3ccccc3)C(=O)C12` (stereo not given), for which the TGI in assay [15], in [3], in assay [8], in assay [9], in assay [14] and in assay [11] was over 100 µM each time.
As for `CC(=O)OCc1cc(OC(C)=O)c2cc3c(OC(C)=O)cccc3c(OC(C)=O)c2c1`, the TGI in assay [15] was 27.3 µM; in [3] it was over 100 µM; in assay [8] it was 59.3 µM; in assay [9], 32.2 µM; in [14], over 100 µM; in assay [11] it was 33 µM.
`Cc1ccc2[nH]c3c(C)c4cc[n+](C)cc4c(C)c3c2c1`: the TGI in assay [15] was 4.53 µM; in [1], 49.8 µM; in [2], 2.73 µM; in [13] it was 17.7 µM; in assay [3], 32.6 µM; in assay [4], over 58.5 µM. For the same molecule, the TGI stood at 71.3 µM in assay [5]; 5.01 µM in assay [6]; 13.4 µM in [8]; 1.52 µM in [9]; 4.82 µM in [10]; 70.7 µM in assay [14]. For the same molecule, the TGI in assay [11] is over 96.3 µM.
As for `C/C(=N/NC(=S)Nc1ccccc1C)c1ccccn1`, the TGI in [15] was 12.3 µM; in [3], 12.9 µM; in assay [8], 18.5 µM; in assay [9] it was 6.51 µM; in assay [14], over 4.64 µM; in assay [11], 4.27 µM.
`CC1NC(=O)c2c(-c3ccccc3)nn(-c3ccccc3)c2NC1=O` (stereo not given): the TGI in assay [15], in assay [3], in [8], in assay [9], in assay [14] and in assay [11] was over 100 µM throughout.
`C=CC[C@H](O)[C@@](NC(=O)OCc1ccccc1)(Sc1ccc(C)cc1)C(F)(F)F`: the TGI in assay [15] is over 100 µM; in assay [3] it was 60.5 µM; in assay [8] it was over 100 µM; in assay [9] it was 45.8 µM; in assay [14], 60.9 µM; in [11] it was over 100 µM.
As to `COc1ccc(-c2c(C(C)=O)c(C)n(C3OC(COC(C)=O)C(OC(C)=O)C(OC(C)=O)C3OC(C)=O)c(=S)c2C#N)cc1` (stereo not given), the TGI in assay [15], in assay [3], in assay [8], in assay [9], in [14] and in [11] was over 100 µM in each case.
On to `CC1(C)OC[C@@H]([C@H](C=O)OCc2ccccc2)O1`, for which the TGI in assay [15], in assay [3], in assay [8], in [9], in [14] and in assay [11] was over 100 µM throughout.
Regarding `Nc1ccc(N=Nc2ccc(-c3ccc(N=Nc4c(S(=O)(=O)O)cc5cc(S(=O)(=O)O)c(N=Nc6ccc([N+](=O)[O-])cc6)c(N)c5c4O)cc3)cc2)c2cc(S(=O)(=O)O)ccc12`, the TGI in assay [15], in assay [1], in [13], in assay [3], in assay [5] and in assay [6] was over 100 µM throughout. Moreover, the TGI in assay [7], in assay [8], in assay [9], in [10], in assay [14] and in [11] was over 100 µM in each case. Moreover, in assay [12], the TGI is over 100 µM.
In the case of `CCN(CC)CCOc1ccc(N2Cc3cc(OC)c(OC)cc3C2=O)cc1`, the TGI in [15], in assay [3], in assay [8], in assay [9], in assay [14] and in assay [11] was over 100 µM in each case.
For `c1ccc(C2C3=C(c4ccccc4CC3)N3c4cc5nc6ccccc6nc5cc4NC34CCCCC24)cc1` (stereo not given), the TGI in assay [15] is over 10 µM; in [3], over 10 µM; in assay [8], over 10 µM; in assay [9] it was over 10 µM; in assay [14] it was 2.05 µM; in assay [11] it was over 10 µM.
As to `O=C(OC1C#CCSCC#C/C=C\1)c1cnc2ccccc2n1` (stereo not given), the TGI in [15] was over 100 µM; in assay [3], over 100 µM; in assay [8] it was over 100 µM; in assay [9], over 100 µM; in assay [14] it was 53.1 µM; in assay [11], over 100 µM.
As for `Oc1c(Nc2ccccc2)cc2c3c1N=NC=3CCN=2`, the TGI in assay [15] is over 100 µM; in assay [3], 44.4 µM; in assay [8], over 100 µM; in assay [9], over 100 µM; in assay [14], over 100 µM; in [11], over 100 µM.
Consider `[N-]=[N+]=NCC(=O)c1c[nH]c(=O)[nH]c1=O`, for which the TGI in [15], in assay [3], in assay [8], in assay [9], in assay [14] and in assay [11] was over 100 µM throughout.
As for `CCN(CC)CCC1CCCCN1CC(=O)N1c2ccccc2NC(=O)CC1C` (stereo not given), the TGI in [15], in assay [3], in assay [8], in [9], in assay [14] and in assay [11] was over 100 µM throughout.
On to `CCOc1ccc(-n2c(=O)c3nn4c(=O)n(-c5ccc(OCC)cc5)c(=O)c4nn3c2=O)cc1`, for which the TGI in assay [15] is 67.9 µM; in assay [3], over 100 µM; in [8], over 100 µM; in assay [9], over 100 µM; in assay [14] it was over 100 µM; in [11] it was over 100 µM.
On to `Cc1ccc(C2=NN=C3C(c4ccccc4)=Nc4ccccc4N3C2)cc1`, for which the TGI was over 100 µM in assay [15]; over 83.7 µM in [3]; 21.8 µM in assay [8]; over 100 µM in assay [9]; over 100 µM in assay [14]; 1.78 µM in assay [11].
`CCN1CCC(O)(/C=C/c2cccc(C)c2)C(C(=O)/C=C/c2cccc(C)c2)C1` (stereo not given): the TGI in assay [15] is 4.52 µM; in assay [3], 6.13 µM; in [8], 13.6 µM; in [9] it was 7.04 µM; in assay [14], over 100 µM; in assay [11] it was 3.92 µM.
As for `O=C1CCN(CCC(F)(F)C(F)(F)C(F)(F)C(F)(F)F)C(=S)N1`, the TGI in assay [2], in [13], in [3], in assay [5], in assay [6] and in assay [7] was over 100 µM throughout. For the same molecule, the TGI in assay [8], in assay [9], in [10], in assay [14], in assay [11] and in assay [12] was over 100 µM throughout.
Turning to `CC(C)C1=CC23CCC4C(C)(C(=O)O)CCCC4(C)C2CC1C1C(=O)N(c2ccc(N4C(=O)C5C6CC7C8(C)CCCC(C)(C(=O)O)C8CCC7(C=C6C(C)C)C5C4=O)cc2)C(=O)C13` (stereo not given), the TGI in assay [15] worked out at 24.8 µM; in assay [3], 11.8 µM; in assay [8], 25.1 µM; in assay [9], 17.5 µM; in assay [14], 15.9 µM; in assay [11], 29.9 µM.
As for `CC1=N/C(=C\c2ccc(N)cc2)C(=O)N1Nc1nnc(NN2C(=O)/C(=C/c3ccc(N)cc3)N=C2C)c2ccccc12`, the TGI in assay [15], in assay [1], in [13], in assay [3], in assay [4] and in assay [5] was over 100 µM each time. The TGI in [6], in assay [7], in assay [8], in assay [9] and in assay [14] was over 100 µM throughout.
With `Brc1ccc2[nH]cc([C@@H]3CN[C@@H](c4c[nH]c5ccc(Br)cc45)CN3)c2c1`, the TGI in assay [15] was 28.7 µM; in assay [3], 9.2 µM; in assay [8], 17.7 µM; in assay [9], 17.8 µM; in [14] it was 4.17 µM; in [11], 16.4 µM.
Consider `Cc1ccc(C)n1-n1c(Cc2ccc(Cl)cc2)n[nH]c1=O`, for which the TGI in assay [15], in assay [3], in assay [8], in assay [9], in assay [14] and in assay [11] was over 100 µM in each case.
As for `Cc1ccc(NCCO)cc1`, the TGI in [1], in assay [2], in assay [3], in [5], in assay [6] and in assay [8] was over 100 µM in each case. Also, the TGI in assay [9], in [10], in [14], in assay [11] and in [12] was over 100 µM throughout.
On to `O=C(O)[C@@]1(Cc2ccc(O)cc2)C[C@@H]2Cc3ccccc3N2N1`, for which the TGI in [15], in assay [3], in [8], in assay [9], in assay [14] and in [11] was over 100 µM throughout.
In the case of `O=C(c1ccccc1)c1ccc(N2C(=O)/C(=C/c3cccc([N+](=O)[O-])c3)N=C2c2ccccc2)c(N2C(=O)/C(=C/c3cccc([N+](=O)[O-])c3)N=C2c2ccccc2)c1`, the TGI in assay [15], in assay [3], in [8], in [9], in assay [14] and in assay [11] was over 100 µM each time.
